# Measured values published in patent US4424358A, “β-3-Amino nor-tropane compounds” (Delalande S.A., priority 1979, dated 1984).
# Read-outs that look alike come from different tables or passages of the source.
# Key:
# [1] = test system: apomorphine straightening; experiment: antagonism to apomorphine straightening (neuroleptic activity); format: in vivo, mice; conditions: Mus musculus, ip, read-out: Apomorphine straightening ED 50
# [2] = acute toxicity by intraperitoneal administration; conditions: mouse, in vivo, ip; mice, i.p., estimated lethal dose (method of Miller); read-out: Acute toxicity LD 50
# Description: Acute toxicity was studied on mice by intraperitoneal administration, and the estimated lethal doses in accordance with the method described by MILLER and THINTER Proc. Soc. Exper.
SMILES,ED50 [1] [mg/kg],LD50 [2] [mg/kg],"ED50 ([1]; mice, i.p.) [mg/kg]"
CCOc1nc(N)ncc1C(=O)N[C@@H]1C[C@H]2CC[C@@H](C1)N2Cc1ccccc1 [Compound 3],0.04,300,
"COc1nc(N)ncc1C(=O)N[C@@H]1C[C@H]2CC[C@@H](C1)N2Cc1ccc(Cl)cc1 [Compound 8, β-3-[5-(2-amino 4-methoxypyrimidinyl)carbonyl]amino N-parachlorobenzyl nor-tropane]",0.035,220,
COc1ccc(CN2[C@@H]3CC[C@H]2C[C@H](NC(=O)c2cnc(N)nc2OC)C3)cc1 [Compound 9],0.01,240,
COc1nc(N)ncc1C(=O)N[C@@H]1C[C@H]2CC[C@@H](C1)N2Cc1ccc(C)cc1 [Compound 10],0.035,325,
COc1cc(N)c(Br)cc1C(=O)N[C@@H]1C[C@H]2CC[C@@H](C1)N2Cc1ccccc1 [Compound 16],0.01,240,
"COc1cc(N)c(Br)cc1C(=O)N[C@@H]1C[C@H]2CC[C@@H](C1)N2Cc1ccc(F)cc1 [Compound 19, β-3-[(4-amino 5-bromo 2-methoxy)benzoyl]amino N-parafluorobenzyl nor-tropane, chlorhydrate]",0.01,90,
COc1cc(N)c(Br)cc1C(=O)N[C@@H]1C[C@H]2CC[C@@H](C1)N2Cc1ccc(Br)cc1 [Compound 20],0.034,> 400,
COc1cc(N)c(Br)cc1C(=O)N[C@@H]1C[C@H]2CC[C@@H](C1)N2Cc1cccc(C(F)(F)F)c1 [Compound 21],0.07,85,
COc1cc(N)c(Br)cc1C(=O)N[C@@H]1C[C@H]2CC[C@@H](C1)N2Cc1ccc(Cl)cc1 [Compound 22],0.021,140,
COc1cc(N)c(Br)cc1C(=O)N[C@@H]1C[C@H]2CC[C@@H](C1)N2Cc1ccc(C)cc1 [Compound 23],0.07,> 400,
COc1cc(N)c(Br)cc1C(=O)N[C@@H]1C[C@H]2CC[C@@H](C1)N2Cc1cccc(C)c1 [Compound 24],0.05,160,
COc1cc(N)c(Br)cc1C(=O)N[C@@H]1C[C@H]2CC[C@@H](C1)N2Cc1cccc(Cl)c1 [Compound 25],0.03,100,
COc1cc(N)c(Br)cc1C(=O)N[C@@H]1C[C@H]2CC[C@@H](C1)N2Cc1cccc(F)c1 [Compound 26],0.011,140,
COc1cc(N)c(Br)cc1C(=O)N[C@@H]1C[C@H]2CC[C@@H](C1)N2Cc1cccc(Br)c1 [Compound 27],0.034,> 400,
COc1cc(N)c(Br)cc1C(=O)N[C@@H]1C[C@H]2CC[C@@H](C1)N2Cc1ccc(Cl)c(Cl)c1 [Compound 28],0.12,> 400,
COc1cc(N)c(Br)cc1C(=O)N[C@@H]1C[C@H]2CC[C@@H](C1)N2Cc1cccs1 [Compound 29],0.012,180,
CCc1ccc(CN2[C@@H]3CC[C@H]2C[C@H](NC(=O)c2cc(Br)c(N)cc2OC)C3)cc1 [Compound 30],0.3,230,
COc1cc(N)c(Br)cc1C(=O)N[C@@H]1C[C@H]2CC[C@@H](C1)N2Cc1ccsc1 [Compound 32],0.05,140,
COc1cc(N)c(Br)cc1C(=O)N[C@@H]1C[C@H]2CC[C@@H](C1)N2Cc1ccc(C(F)(F)F)cc1 [Compound 33],0.19,> 400,
COc1cc(N)c(Br)cc1C(=O)N[C@@H]1C[C@H]2CC[C@@H](C1)N2CC1CCCCC1 [Compound 35],0.07,80,
COc1nc(N)ncc1C(=O)N[C@@H]1C[C@H]2CC[C@@H](C1)N2Cc1ccc(Br)cc1 [Compound 37],0.16,170,

SMILES,ED50 [1] [mg/kg],LD50 [2] [mg/kg],"ED50 ([1]; mice, i.p.) [mg/kg]"
COc1cc(NC(C)=O)c(Br)cc1C(=O)N[C@@H]1C[C@H]2CC[C@@H](C1)N2Cc1ccccc1 [Compound 40],0.05,130,
COc1cc(NC(=O)C(F)(F)F)c(Br)cc1C(=O)N[C@@H]1C[C@H]2CC[C@@H](C1)N2Cc1ccccc1 [Compound 41],0.03,225,
COc1cc(NC(C)=O)c(Cl)cc1C(=O)N[C@@H]1C[C@H]2CC[C@@H](C1)N2Cc1ccccc1 [Compound 42],0.05,61,
COc1cc(NC(=O)C(F)(F)F)c(Cl)cc1C(=O)N[C@@H]1C[C@H]2CC[C@@H](C1)N2Cc1ccccc1 [Compound 43],0.03,120,
COc1ccc([N+](=O)[O-])cc1C(=O)N[C@@H]1C[C@H]2CC[C@@H](C1)N2Cc1ccccc1 [Compound 48],0.21,310,
COc1ccc(F)cc1C(=O)N[C@@H]1C[C@H]2CC[C@@H](C1)N2Cc1ccccc1 [Compound 49],0.08,120,
COc1ccc(O)cc1C(=O)N[C@@H]1C[C@H]2CC[C@@H](C1)N2Cc1ccccc1 [Compound 51],0.03,140,
COc1cc(OC)c(C(=O)N[C@@H]2C[C@H]3CC[C@@H](C2)N3Cc2ccccc2)cc1OC [Compound 60],0.027,75,
COc1ccc(C(=O)N[C@@H]2C[C@H]3CC[C@@H](C2)N3Cc2ccccc2)c(OC)c1OC [Compound 61],0.02,80,
COc1ccccc1C(=O)N[C@@H]1C[C@H]2CC[C@@H](C1)N2Cc1ccccc1 [Compound 62],0.04,60,
COc1cccc(C(=O)N[C@@H]2C[C@H]3CC[C@@H](C2)N3Cc2ccccc2)c1OC [Compound 64],0.008,83,
COc1cc(N)ccc1C(=O)N[C@@H]1C[C@H]2CC[C@@H](C1)N2Cc1ccccc1 [Compound 67],0.038,100,
COc1ccc(C(=O)N[C@@H]2C[C@H]3CC[C@@H](C2)N3Cc2ccccc2)c(OC)c1 [Compound 68],0.02,47,
COc1cc(N)c(Cl)cc1C(=O)N[C@@H]1C[C@H]2CC[C@@H](C1)N2Cc1ccco1 [Compound 71],0.11,120,
COc1cc(N)c(Cl)cc1C(=O)N[C@@H]1C[C@H]2CC[C@@H](C1)N2Cc1ccsc1 [Compound 72],0.04,110,
COc1cc(N)c(Cl)cc1C(=O)N[C@@H]1C[C@H]2CC[C@@H](C1)N2Cc1cccs1 [Compound 73],0.02,170,
COc1c(C(=O)N[C@@H]2C[C@H]3CC[C@@H](C2)N3Cc2ccccc2)cc(Br)c(N)c1Br [Compound 74],0.035,250,
CCOc1cc(N)c(Br)cc1C(=O)N[C@@H]1C[C@H]2CC[C@@H](C1)N2Cc1ccccc1 [Compound 75],0.021,> 400,
COc1cc(OC)cc(C(=O)N[C@@H]2C[C@H]3CC[C@@H](C2)N3Cc2ccccc2)c1 [Compound 83],0.031,140,
"CCN1CCCC1CNC(=O)c1cc(S(N)(=O)=O)ccc1OC (stereo not drawn) [SULPIRIDE, reference compound]",,,37
